Measured values reported in ChEMBL document CHEMBL1148809, “Biological evaluation, structure-activity relationships, and three-dimensional quantitative structure-activity relationship studies of dihydro-beta-agarofuran sesquiterpenes as modulators of P-glycoprotein-dependent multidrug resistance” (J Med Chem, 2007).

Tests used:
[1] = target: ATP-dependent translocase ABCB1 (Homo sapiens, UniProt P08183); assay: (§1) Inhibition of human Pgp-mediated DNR transport in NIH3T3 cells by microplate assay; type: cell-based, Mus musculus
[2] = target: P-gp (ABCB1) (Homo sapiens, UniProt P08183); assay: as §1; type: cell-based, Mus musculus; conditions: mouse, NIH3T3 cells expressing human P-gp, probe DNR; read-out: Imax
[3] = Partition coefficient, log P of the compound; type: physicochemical; conditions: octanol/water

Sequence of ATP-dependent translocase ABCB1 (P08183 whole entry): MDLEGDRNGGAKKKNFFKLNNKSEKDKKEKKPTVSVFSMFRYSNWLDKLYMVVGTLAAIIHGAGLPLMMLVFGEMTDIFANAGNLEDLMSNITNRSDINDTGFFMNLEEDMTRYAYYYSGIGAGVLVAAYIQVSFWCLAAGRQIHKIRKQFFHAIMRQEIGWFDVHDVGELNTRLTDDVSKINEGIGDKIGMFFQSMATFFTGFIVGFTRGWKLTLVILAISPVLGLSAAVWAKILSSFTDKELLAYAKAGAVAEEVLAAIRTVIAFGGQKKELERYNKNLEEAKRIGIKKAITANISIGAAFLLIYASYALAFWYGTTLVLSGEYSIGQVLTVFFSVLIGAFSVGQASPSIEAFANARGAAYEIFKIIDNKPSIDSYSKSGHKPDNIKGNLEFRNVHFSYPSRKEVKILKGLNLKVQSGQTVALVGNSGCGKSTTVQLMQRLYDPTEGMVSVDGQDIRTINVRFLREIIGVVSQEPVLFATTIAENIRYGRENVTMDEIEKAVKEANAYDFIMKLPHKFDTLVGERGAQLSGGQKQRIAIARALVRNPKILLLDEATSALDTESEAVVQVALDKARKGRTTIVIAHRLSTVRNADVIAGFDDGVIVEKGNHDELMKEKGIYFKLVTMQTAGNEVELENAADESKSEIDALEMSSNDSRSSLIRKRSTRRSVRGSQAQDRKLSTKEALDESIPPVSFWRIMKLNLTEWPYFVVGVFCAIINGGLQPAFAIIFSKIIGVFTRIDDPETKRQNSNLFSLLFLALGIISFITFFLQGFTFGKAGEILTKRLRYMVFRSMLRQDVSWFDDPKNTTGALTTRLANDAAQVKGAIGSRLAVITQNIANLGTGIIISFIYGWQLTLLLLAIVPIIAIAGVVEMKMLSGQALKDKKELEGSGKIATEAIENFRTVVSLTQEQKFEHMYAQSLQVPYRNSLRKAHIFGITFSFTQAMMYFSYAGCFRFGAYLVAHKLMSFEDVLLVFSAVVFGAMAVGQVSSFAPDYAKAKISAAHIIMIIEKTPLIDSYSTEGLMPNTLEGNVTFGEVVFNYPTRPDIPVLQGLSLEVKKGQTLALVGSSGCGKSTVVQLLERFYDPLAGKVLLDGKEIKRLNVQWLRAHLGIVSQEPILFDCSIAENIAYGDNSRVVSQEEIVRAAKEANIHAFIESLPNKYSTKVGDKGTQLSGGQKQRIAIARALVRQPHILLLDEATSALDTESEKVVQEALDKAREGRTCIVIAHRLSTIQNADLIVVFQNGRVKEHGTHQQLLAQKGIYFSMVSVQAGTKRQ
Sequence of P-gp (ABCB1) (P08183 whole entry): as above

Row | SMILES | Ki ([1]; read-out: Ki) | Emax [2] | logP ([3]; read-out: LogP) | logP [3] | Ki ([1]; read-out: Log Ki (converted))
1 | CC(=O)OC[C@]12[C@H](OC(=O)c3ccccc3)C(=O)[C@@H]3[C@@H](OC(C)=O)[C@]1(OC3(C)C)[C@H](C)C[C@H](OC(C)=O)[C@@H]2OC(=O)c1ccccc1 | 1.63 µM | 81.6% | 8.1 |  | 
2 | CC(=O)O[C@H]1C[C@@](C)(O)[C@]23OC(C)(C)[C@H](C[C@H](OC(=O)c4ccco4)[C@]2(C)[C@H]1OC(C)=O)[C@H]3OC(=O)c1ccco1 | 2.91 µM | 95.7% | 5.1 |  | 
3 | CC(=O)O[C@@H]1[C@H](O)[C@@H](C)[C@@]23C[C@@H](C[C@H](OC(=O)/C=C/c4ccccc4)[C@]2(C)[C@H]1OC(=O)c1ccccc1)C(C)(C)O3 | 8.46 µM | 82.9% | 6.3 |  | 
4 | CC(=O)O[C@H]1[C@@H]2[C@@H](OC(C)=O)[C@]3(OC2(C)C)[C@H](C)C[C@H](OC(=O)c2cccnc2)[C@H](OC(=O)c2ccccc2)[C@@]3(C)[C@H]1OC(=O)c1ccccc1 | 7.72 µM | 92.3% | 8.7 |  | 
5 | CC(=O)O[C@H]1C[C@@](C)(O)[C@]23OC(C)(C)[C@H](C[C@H](OC(=O)c4ccco4)[C@]2(C)[C@H]1OC(=O)c1ccccc1)[C@H]3OC(=O)c1ccco1 | 3.45 µM | 45.3% | 7.2 |  | 
6 | CCCO[C@H]1C[C@@](C)(O)[C@]23OC(C)(C)[C@H](C[C@H](OC(=O)c4ccco4)[C@]2(C)[C@H]1OC(C)=O)[C@H]3OC(=O)c1ccco1 | 1.13 µM | 100% | 6.2 |  | 
7 | CC(=O)O[C@H]1C[C@@](C)(O)[C@]23OC(C)(C)[C@H](C[C@H](OC(=O)c4ccco4)[C@]2(C)[C@H]1OC(C)=O)[C@H]3OC(=O)C(F)(F)F | 12.1 µM | 34% | 4.1 |  | 
8 | CC(=O)OC[C@]12[C@@H](OC(=O)c3ccccc3)[C@@H](OC(=O)c3ccccc3)[C@@H]3[C@@H](OC(C)=O)[C@]1(OC3(C)C)[C@](C)(O)C[C@H](OC(C)=O)[C@@H]2OC(C)=O | 1.74 µM | 97% | 7.6 |  | 
9 | CC(=O)O[C@H]1[C@@H](OC(=O)c2ccccc2)C[C@@](C)(O)[C@]23OC(C)(C)[C@H](C[C@H](OC(=O)c4ccco4)[C@]12C)[C@H]3O | 2.5 µM | 68% | 5.7 |  | 
10 | CC(=O)O[C@H]1C[C@@](C)(O)[C@]23OC(C)(C)[C@H](C[C@H](OC(=O)c4ccco4)[C@]2(C)[C@H]1OC(C)=O)[C@H]3O | 17.5 µM | 100% | 3.4 |  | 
11 | CC(=O)O[C@H]1[C@@H](OC(=O)c2ccco2)C[C@@](C)(O)[C@]23OC(C)(C)[C@H](C[C@H](OC(=O)c4ccco4)[C@]12C)[C@H]3O | 5.53 µM | 41.2% | 4.7 |  | 
12 | CC(=O)O[C@H]1[C@@H](O)[C@H](OC(=O)c2ccccc2)[C@@]2(C)[C@@H](OC(=O)/C=C/c3ccccc3)C[C@@H]3C[C@]2(OC3(C)C)[C@@H]1C | 4.25 µM | 63.7% | 6.2 |  | 
13 | CC(=O)OC[C@]12[C@H](OC(=O)c3ccccc3)[C@H](OC(=O)c3ccccc3)[C@@H]3[C@@H](OC(C)=O)[C@]1(OC3(C)C)[C@H](C)C[C@H](OC(=O)c1ccccc1)[C@@H]2OC(C)=O | 33.8 µM | 100% |  | 10.3 | 
14 | CC(=O)O[C@@H]1[C@H]2[C@@H](OC(=O)c3ccccc3)[C@@H](OC(=O)c3ccccc3)[C@]3(CO)[C@@H](OC(=O)c4ccccc4)[C@@H](OC(=O)c4ccccc4)C[C@@H](C)[C@@]13OC2(C)C | 1.3 µM | 39.5% |  | 11.5 | 1.66 µM
15 | CC(=O)OC[C@]12[C@H](OC(C)=O)C(=O)[C@@H]3[C@@H](O)[C@]1(OC3(C)C)[C@](C)(O)C[C@H](OC(C)=O)[C@@H]2OC(C)=O | 7.65 µM | 39% | 3.3 |  | 
16 | CC(=O)O[C@H]1[C@@H]2C[C@@]3(OC2(C)C)[C@](C)([C@H]1OC(=O)c1ccccc1)[C@@H](OC(=O)c1cccnc1)[C@H](OC(C)=O)[C@H](OC(=O)c1ccccc1)[C@@]3(C)O | 1.36 µM | 100% | 7.8 |  | 

Row | SMILES | Ki ([1]; read-out: Ki) | Emax [2] | logP ([3]; read-out: LogP) | logP [3] | Ki ([1]; read-out: Log Ki (converted))
17 | CC(=O)O[C@H]1[C@H](OC(=O)c2cccnc2)[C@@]2(C)[C@@H](OC(=O)c3ccccc3)[C@@H](OC(=O)c3ccccc3)[C@@H]3C[C@]2(OC3(C)C)[C@](C)(O)[C@H]1OC(C)=O | 1.45 µM | 100% | 7.5 |  | 
18 | CC(=O)OC[C@]12[C@@H](OC(=O)c3ccccc3)C[C@@H]3[C@@H](OC(C)=O)[C@]1(OC3(C)C)[C@H](C)C[C@H](OC(=O)c1ccccc1)[C@@H]2OC(C)=O | 0.63 µM | 88% | 7.7 |  | 
19 | CC(=O)O[C@H]1[C@@H]2C[C@@]3(OC2(C)C)[C@](C)([C@H]1OC(=O)c1ccccc1)[C@@H](OC(=O)c1ccccc1)[C@H](OC(C)=O)[C@H](OC(C)=O)[C@@]3(C)O | 1.27 µM | 88.7% | 6.8 |  | 
20 | CC(=O)OC[C@]12[C@H](OC(C)=O)C(=O)[C@@H]3[C@@H](OC(C)=O)[C@]1(OC3(C)C)[C@H](C)C[C@H](OC(C)=O)[C@@H]2OC(=O)c1ccccc1 | 5.74 µM | 96.4% | 6.1 |  | 
21 | CC(=O)OC[C@]12[C@H](OC(C)=O)C(=O)[C@@H]3[C@@H](OC(C)=O)[C@]1(OC3(C)C)[C@H](C)C[C@H](OC(C)=O)[C@@H]2OC(C)=O | 9.83 µM | 100% | 4 |  | 
22 | CCCCCO[C@@H]1[C@@H]2[C@@H](OC(C)=O)[C@@]3(OC2(C)C)[C@@](COC(C)=O)([C@@H](OC(C)=O)CC[C@@]3(C)O)[C@@H]1OC(=O)c1ccccc1 | 1.83 µM | 87.7% | 7 |  | 
23 | CC(=O)O[C@H]1[C@H](OC(=O)c2ccccc2)[C@@]2(C)[C@@H](OC(=O)c3ccccc3)[C@@H](OC(=O)c3ccccc3)[C@@H]3C[C@]2(OC3(C)C)[C@](C)(O)[C@H]1OC(C)=O | 0.73 µM | 98.7% | 8.8 |  | 
24 | CC(=O)O[C@@H]1[C@H]2C[C@H](OC(=O)c3ccco3)[C@]3(C)[C@@H](OC(C)=O)[C@@H](OC(=O)c4ccccc4)C[C@@](C)(O)[C@@]13OC2(C)C | 2.92 µM | 92.7% | 6.1 |  | 
25 | CC(=O)O[C@H]1C[C@@](C)(O)[C@]23OC(C)(C)[C@H](C[C@H](OC(=O)c4ccco4)[C@]2(C)[C@H]1OC(C)=O)[C@H]3OC(=O)c1cccc2ccccc12 | 1.65 µM | 91.1% | 7.3 |  | 
26 | CC(=O)OC[C@]12[C@H](OC(=O)c3ccccc3)C(=O)[C@@H]3[C@@H](O)[C@]1(OC3(C)C)[C@](C)(O)C[C@H](OC(C)=O)[C@@H]2OC(=O)c1ccccc1 | 3.97 µM | 74.4% | 7.2 |  | 
27 | CC(=O)O[C@@H]1C[C@@](C)(O)[C@@]23C[C@@H](C[C@H](OC(=O)/C=C/c4ccccc4)[C@]2(C)[C@H]1OC(=O)c1ccccc1)C(C)(C)O3 | 7.61 µM | 100% | 6.5 |  | 
28 | CCCCCO[C@H]1C[C@@](C)(O)[C@]23OC(C)(C)[C@H](C[C@H](OC(=O)c4ccco4)[C@]2(C)[C@H]1OC(C)=O)[C@H]3OC(=O)c1ccco1 | 0.57 µM | 95.5% | 6.6 |  | 
29 | CC(=O)OC[C@]12[C@H](OC(C)=O)C(=O)[C@@H]3[C@@H](OC(C)=O)[C@]1(OC3(C)C)[C@](C)(O)[C@@H](OC(C)=O)[C@H](OC(C)=O)[C@@H]2OC(=O)c1ccccc1 | 6.52 µM | 53.9% | 6 |  | 0.302 µM
30 | CCCCCO[C@H]1[C@@H](OC(=O)c2ccco2)C[C@@](C)(O)[C@]23OC(C)(C)[C@H](C[C@H](OC(=O)c4ccco4)[C@]12COC(C)=O)[C@H]3OC(C)=O | 1.94 µM | 91.3% | 6.9 |  | 
31 | CC(=O)OC[C@@]12[C@@H](OC(=O)c3ccccc3)CC[C@@](C)(O)[C@]13OC(C)(C)[C@H]([C@@H](OC(=O)c1ccccc1)[C@H]2OC(=O)c1ccccc1)[C@H]3OC(C)=O | 1.22 µM | 100% |  | 9.6 | 
